# Key:
# [1] = tested on: LAB 110 Eatro strain of T. b. brucei; experiment: Acute Murine Model A [Murine Stage 1 HAT]; format: in vivo
# Experimental: Female Swiss Webster mice were inoculated with 250,000 parasites of the LAB 110 Eatro strain of T. b. brucei. 24 hrs post-infection, treatment was initiated by administration of a compound of the invention BID for 4 days with 20 mg/kg/dose (40 mg/kg/day) intraperitoneally (IP) or orally (PO), 5 mg/kg BID or 10 mg/kg BID orally (PO). 3 mice per group were treated with a particular compound of the invention. Mice were checked for parasitemia weekly by microscopic examination of smears prepared from tail vein blood. Animals remaining parasite free for more than 30 days beyond the end of the treatment period were considered cured. Control untreated animals typically succumbed to the infection within 4-5 days following i.p. inoculation with parasites. Mice were monitored for 30 days for survival. Pentamidine at 2 mg/kg IP was used as the positive control. After 10 days, 0% of the untreated mice were parasite free. After 10 days, 67% of mice treated PO with 10 mg/kg BID of N-(1-Hydroxy-3,4-dihydro-1H-benzo[c][1,2]oxaborinin-7-yl)-4-methoxy-benzamide (M19) were parasite free. After 30 days, 100% of mice treated PO with 10 mg/kg BID of 4-fluoro-N-(1-hydroxy-3,4-dihydro-1H-benzo[c][1,2]oxaborinin-7-yl)-2-trifluoromethyl-benzamide (M1) were parasite free.
# [2] = tested on: TREU 667 strain of T. b. brucei; experiment: Chronic CNS Model [Murine Stage 2 HAT]; format: in vivo; conditions: 50 mg/kg PO BID for 7 days, starting at Day 21 post-infection
# Experimental: Mice were infected with 10,000 parasites of the TREU 667 strain of T. b. brucei. Twenty one days post-infection mice were treated with a dose of between 6 and 100 mg/kg of a compound of the invention, either BID or QD for 7 days intraperitoneally (IP) or orally (PO). Positive control mice were treated with Diminazene (10 mg/kg, IP) on Day 4 post-infection. Negative control mice were treated with Diminazene (10 mg/kg, PO) on Day 21. Since Diminazene is not able to penetrate the CNS, mice treated at Day 21 are not able to cure the infection. Starting 1 week after treatment, mice were checked for parasitemia by microscopic examination of smears prepared from tail vein blood. Parasite positive animals were immediately removed from the cages and euthanized. Animals were considered to be cured of a CNS infection if they were aparasitemic for at least 180 days after the end of the treatment period.
compound,measurement,setting,value
"O=C(Nc1ccc2c(c1)B(O)OCC2)c1ccc(F)cc1C(F)(F)F [M1, 4-Fluoro-N-(1-hydroxy-3,4-dihydro-1H-benzo[c][1,2]oxaborinin-7-yl)-2-trifluoromethyl-benzamide]",mice parasite free after 30 days,"[1]; female Swiss Webster mice, PO 10 mg/kg BID for 4 days, after 30 days",100%
same,Mean Survival Days,"[1]; mice infected with T. b. brucei, 10 mg/kg, BID, orally, 4 days",30 days
same,mice with absence of blood parasites through Day 180,[2],100%
